According to ChEMBL document CHEMBL4414602, “Bipolaricins A-I, Ophiobolin-Type Tetracyclic Sesterterpenes from a Phytopathogenic Bipolaris sp. Fungus” (J Nat Prod, 2019):
Active and inactive are the calls of the source. No cut-off for these calls is given here.

Each compound was assayed on RAW264.7 (assay: Antiinflammatory activity in mouse RAW264.7 cells assessed as inhibition of LPS-induced TNFalpha production at 5 to 10 uM pretreated for 2 hrs followed by LPS challenge and measured after 12 hrs by ELISA). Conditions: not given.
Type: functional, cell-based
For `CC(C)=C[C@H]1C[C@H](C)[C@]2(CC[C@]3(C)C[C@@H]4C(C)=CC(=O)[C@H]4/C(C=O)=C\C[C@H]32)O1` [3-ANHYDRO-6-EPI-OPHIOBOLIN A], the inhibition was “Active”.

These compounds were tested on RAW264.7 (assay: Antiinflammatory activity in mouse RAW264.7 cells assessed as increase of LPS-induced IL-3 production at 5 to 10 uM pretreated for 2 hrs followed by LPS challenge and measured after 12 hrs by ELISA). Conditions: not given.
Type: functional, cell-based
In the case of `CC(C)=C[C@H]1C[C@H](C)[C@]2(CC[C@]3(C)C[C@@H]4C(C)=CC(=O)[C@H]4/C(C=O)=C\C[C@H]32)O1` [3-ANHYDRO-6-EPI-OPHIOBOLIN A], the Activity is reported as “Active”.

Each compound was assayed against Transcription factor p65 (Mus musculus) (UniProt Q04207) (assay: Inhibition of LPS-induced NF-kappaB p65 translocation in mouse RAW264.7 cells at 5 to 10 uM pretreated for 2 hrs followed by LPS challenge measured after 12 hrs by DAPI staining based fluorescence microscopic analysis). Conditions: not given.
Sequence of Transcription factor p65 (Mus musculus) (Q04207 whole entry): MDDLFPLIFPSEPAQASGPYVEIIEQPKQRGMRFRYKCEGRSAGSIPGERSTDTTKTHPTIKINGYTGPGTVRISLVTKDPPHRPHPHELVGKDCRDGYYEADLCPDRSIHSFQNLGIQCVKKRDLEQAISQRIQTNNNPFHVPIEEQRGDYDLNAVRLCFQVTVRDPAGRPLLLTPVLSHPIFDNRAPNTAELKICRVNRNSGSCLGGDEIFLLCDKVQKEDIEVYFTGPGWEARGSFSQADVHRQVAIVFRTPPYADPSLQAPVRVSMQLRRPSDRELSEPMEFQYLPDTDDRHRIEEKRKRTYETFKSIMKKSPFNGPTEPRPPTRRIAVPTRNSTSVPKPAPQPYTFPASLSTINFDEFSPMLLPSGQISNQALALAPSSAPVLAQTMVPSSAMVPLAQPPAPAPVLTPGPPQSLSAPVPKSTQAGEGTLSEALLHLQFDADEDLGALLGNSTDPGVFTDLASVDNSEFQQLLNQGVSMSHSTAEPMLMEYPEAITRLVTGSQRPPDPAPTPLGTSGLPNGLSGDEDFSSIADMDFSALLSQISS
Type: cell-based
`CC(C)=C[C@H]1C[C@H](C)[C@]2(CC[C@]3(C)C[C@@H]4C(C)=CC(=O)[C@H]4/C(C=O)=C\C[C@H]32)O1` [3-ANHYDRO-6-EPI-OPHIOBOLIN A] was tested, and the inhibition was “Active”.

Each compound was assayed on RAW264.7 (assay: Antiinflammatory activity in mouse RAW264.7 cells assessed as inhibition of LPS-induced RANTES production at 5 to 10 uM pretreated for 2 hrs followed by LPS challenge and measured after 12 hrs by ELISA). Conditions: not given.
Type: functional, cell-based
For `CC(C)=C[C@H]1C[C@H](C)[C@]2(CC[C@]3(C)C[C@@H]4C(C)=CC(=O)[C@H]4/C(C=O)=C\C[C@H]32)O1` [3-ANHYDRO-6-EPI-OPHIOBOLIN A], the inhibition was “Active”.

These compounds were tested on RAW264.7 (assay: Antiinflammatory activity in mouse RAW264.7 cells assessed as inhibition of LPS-induced MIP-1beta production at 5 to 10 uM pretreated for 2 hrs followed by LPS challenge and measured after 12 hrs by ELISA). Conditions: not given.
Type: functional, cell-based
`CC(C)=C[C@H]1C[C@H](C)[C@]2(CC[C@]3(C)C[C@@H]4C(C)=CC(=O)[C@H]4/C(C=O)=C\C[C@H]32)O1` [3-ANHYDRO-6-EPI-OPHIOBOLIN A] was tested, and the inhibition was “Active”.

These compounds were tested on MDA-MB-231 (assay: Cytotoxicity against human MDA-MB-231 cells by MTT assay). Conditions: not given.
Type: cell-based
`CC1=CC(=O)/C2=C(\CO)[C@H](O)C[C@@H]3[C@](C)(CC[C@@]34O[C@@H](/C=C(\C)CO)C[C@@H]4C)C[C@H]12` was tested, and the IC50 was greater than 40 µM. Work on `CC1=CC(=O)/C2=C(\CO)CC[C@@H]3[C@](C)(CC[C@@]34O[C@@H](/C=C(\C)CO)C[C@@H]4C)C[C@H]12` yielded an IC50 greater than 40 µM. For `CC(C)=C[C@H]1C[C@H](C)[C@]2(CC[C@]3(C)C[C@@H]4C(C)=CC(=O)[C@H]4/C(C=O)=C\C[C@H]32)O1` [3-ANHYDRO-6-EPI-OPHIOBOLIN A], the IC50 was greater than 40 µM.

The compounds below were run on HepG2 (assay: Cytotoxicity against human HepG2 cells by MTT assay). Conditions: not given.
Type: cell-based
For `CC1=CC(=O)/C2=C(\CO)[C@H](O)C[C@@H]3[C@](C)(CC[C@@]34O[C@@H](/C=C(\C)CO)C[C@@H]4C)C[C@H]12`, the IC50 was greater than 40 µM. Work on `CC1=CC(=O)/C2=C(\CO)CC[C@@H]3[C@](C)(CC[C@@]34O[C@@H](/C=C(\C)CO)C[C@@H]4C)C[C@H]12` yielded an IC50 greater than 40 µM. In the case of `CC(C)=C[C@H]1C[C@H](C)[C@]2(CC[C@]3(C)C[C@@H]4C(C)=CC(=O)[C@H]4/C(C=O)=C\C[C@H]32)O1` [3-ANHYDRO-6-EPI-OPHIOBOLIN A], the IC50 is reported as greater than 40 µM.

The compounds below were run on RAW264.7 (assay: Antiinflammatory activity in mouse RAW264.7 cells assessed as inhibition of LPS-induced IL-1beta production at 5 to 10 uM pretreated for 2 hrs followed by LPS challenge and measured after 12 hrs by ELISA). Conditions: not given.
Type: functional, cell-based
With `CC(C)=C[C@H]1C[C@H](C)[C@]2(CC[C@]3(C)C[C@@H]4C(C)=CC(=O)[C@H]4/C(C=O)=C\C[C@H]32)O1` [3-ANHYDRO-6-EPI-OPHIOBOLIN A] the inhibition was “Active”.

The compounds below were run on RAW264.7 (assay: Cytotoxicity against mouse RAW264.7 cells at 40 uM by MTT assay). Conditions: raw264.7, 40 µM.
Type: cell-based
For `CC1=CC(=O)/C2=C(\CO)[C@H](O)C[C@@H]3[C@](C)(CC[C@@]34O[C@@H](/C=C(\C)CO)C[C@@H]4C)C[C@H]12`, the Activity was “Non-Toxic”. `CC1=CC(=O)/C2=C(\CO)CC[C@@H]3[C@](C)(CC[C@@]34O[C@@H](/C=C(\C)CO)C[C@@H]4C)C[C@H]12` was tested, and the Activity was “Non-Toxic”. For `CC(C)=C[C@H]1C[C@H](C)[C@]2(CC[C@]3(C)C[C@@H]4C(C)=CC(=O)[C@H]4/C(C=O)=C\C[C@H]32)O1` [3-ANHYDRO-6-EPI-OPHIOBOLIN A], the Activity was “Non-Toxic”.

The compounds below were run on RAW264.7 (assay: Antiinflammatory activity in mouse RAW264.7 cells assessed as increase in LPS-induced HO-1 protein level pretreated for 2 hrs followed by LPS challenge and measured after 12 hrs by Western blot analysis). Conditions: not given.
Type: functional, cell-based
With `CC(C)=C[C@H]1C[C@H](C)[C@]2(CC[C@]3(C)C[C@@H]4C(C)=CC(=O)[C@H]4/C(C=O)=C\C[C@H]32)O1` [3-ANHYDRO-6-EPI-OPHIOBOLIN A] the Activity was “Dose-dependent effect”.

The compounds below were run on RAW264.7 (assay: Antiinflammatory activity in mouse RAW264.7 cells assessed as inhibition of LPS-induced nitric oxide production pretreated for 2 hrs followed by LPS challenge and measured after 12 hrs by Griess assay). Conditions: not given.
Type: functional, cell-based
For `CC1=CC(=O)/C2=C(\CO)[C@H](O)C[C@@H]3[C@](C)(CC[C@@]34O[C@@H](/C=C(\C)CO)C[C@@H]4C)C[C@H]12`, the IC50 was greater than 40 µM. Compound `CC1=CC(=O)/C2=C(\CO)CC[C@@H]3[C@](C)(CC[C@@]34O[C@@H](/C=C(\C)CO)C[C@@H]4C)C[C@H]12` has an IC50 greater than 40 µM. `CC(C)=C[C@H]1C[C@H](C)[C@]2(CC[C@]3(C)C[C@@H]4C(C)=CC(=O)[C@H]4/C(C=O)=C\C[C@H]32)O1` [3-ANHYDRO-6-EPI-OPHIOBOLIN A] gave an IC50 of 5.1 µM.

The compounds below were run against T1, 3-hydroxy-3-methylglutaryl-coenzyme A reductase (Homo sapiens, UniProt P04035) (assay: Inhibition of human HMGR using HMGCoA as substrate measured after 15 mins in presence of NADPH by UV microplate reader analysis). Conditions: not given.
T1 sequence (P04035 whole entry): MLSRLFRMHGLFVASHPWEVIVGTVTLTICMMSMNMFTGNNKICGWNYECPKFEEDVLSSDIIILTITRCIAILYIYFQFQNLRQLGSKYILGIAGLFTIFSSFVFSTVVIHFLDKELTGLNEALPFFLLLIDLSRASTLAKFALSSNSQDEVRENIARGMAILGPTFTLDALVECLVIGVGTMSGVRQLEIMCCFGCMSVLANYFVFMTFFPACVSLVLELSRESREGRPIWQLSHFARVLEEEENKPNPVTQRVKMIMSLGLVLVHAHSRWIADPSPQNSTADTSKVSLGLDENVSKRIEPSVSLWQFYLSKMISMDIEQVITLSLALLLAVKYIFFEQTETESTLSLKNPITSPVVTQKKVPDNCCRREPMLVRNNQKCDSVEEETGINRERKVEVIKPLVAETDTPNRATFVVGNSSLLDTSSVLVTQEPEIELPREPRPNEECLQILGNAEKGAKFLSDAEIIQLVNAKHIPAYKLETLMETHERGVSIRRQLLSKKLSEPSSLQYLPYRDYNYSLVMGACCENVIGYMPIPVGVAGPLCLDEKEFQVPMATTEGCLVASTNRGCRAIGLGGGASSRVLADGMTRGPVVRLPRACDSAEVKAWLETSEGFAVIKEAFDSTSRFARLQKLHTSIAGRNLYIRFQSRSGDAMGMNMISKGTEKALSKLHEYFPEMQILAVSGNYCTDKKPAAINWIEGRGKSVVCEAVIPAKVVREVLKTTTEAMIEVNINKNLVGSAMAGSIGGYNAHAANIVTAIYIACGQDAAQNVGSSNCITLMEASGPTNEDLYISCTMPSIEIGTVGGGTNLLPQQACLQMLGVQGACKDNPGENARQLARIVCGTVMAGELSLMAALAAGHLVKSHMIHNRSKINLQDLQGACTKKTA
`CC(C)=C[C@H]1C[C@H](C)[C@]2(CC[C@]3(C)C[C@@H]4C(C)=CC(=O)[C@H]4/C(C=O)=C\C[C@H]32)O1` [3-ANHYDRO-6-EPI-OPHIOBOLIN A] was tested, and the IC50 was 8.4 µM.

These compounds were tested on A549 (assay: Cytotoxicity against human A549 cells by MTT assay). Conditions: not given.
Type: cell-based
In the case of `CC1=CC(=O)/C2=C(\CO)[C@H](O)C[C@@H]3[C@](C)(CC[C@@]34O[C@@H](/C=C(\C)CO)C[C@@H]4C)C[C@H]12`, the IC50 is reported as greater than 40 µM. `CC1=CC(=O)/C2=C(\CO)CC[C@@H]3[C@](C)(CC[C@@]34O[C@@H](/C=C(\C)CO)C[C@@H]4C)C[C@H]12` gave an IC50 greater than 40 µM. `CC(C)=C[C@H]1C[C@H](C)[C@]2(CC[C@]3(C)C[C@@H]4C(C)=CC(=O)[C@H]4/C(C=O)=C\C[C@H]32)O1` [3-ANHYDRO-6-EPI-OPHIOBOLIN A] showed an IC50 greater than 40 µM.

The compounds below were run on SW1990 (assay: Cytotoxicity against human SW1990 cells by MTT assay). Conditions: not given.
Type: cell-based
Compound `CC1=CC(=O)/C2=C(\CO)[C@H](O)C[C@@H]3[C@](C)(CC[C@@]34O[C@@H](/C=C(\C)CO)C[C@@H]4C)C[C@H]12` has an IC50 greater than 40 µM. In the case of `CC1=CC(=O)/C2=C(\CO)CC[C@@H]3[C@](C)(CC[C@@]34O[C@@H](/C=C(\C)CO)C[C@@H]4C)C[C@H]12`, the IC50 is reported as greater than 40 µM. `CC(C)=C[C@H]1C[C@H](C)[C@]2(CC[C@]3(C)C[C@@H]4C(C)=CC(=O)[C@H]4/C(C=O)=C\C[C@H]32)O1` [3-ANHYDRO-6-EPI-OPHIOBOLIN A] showed an IC50 greater than 40 µM.
